Holding throughout (assay type): biochemical
In one assay the target is T1, Cdc25C (Homo sapiens, UniProt P30307).
T1 sequence (P30307 1-473): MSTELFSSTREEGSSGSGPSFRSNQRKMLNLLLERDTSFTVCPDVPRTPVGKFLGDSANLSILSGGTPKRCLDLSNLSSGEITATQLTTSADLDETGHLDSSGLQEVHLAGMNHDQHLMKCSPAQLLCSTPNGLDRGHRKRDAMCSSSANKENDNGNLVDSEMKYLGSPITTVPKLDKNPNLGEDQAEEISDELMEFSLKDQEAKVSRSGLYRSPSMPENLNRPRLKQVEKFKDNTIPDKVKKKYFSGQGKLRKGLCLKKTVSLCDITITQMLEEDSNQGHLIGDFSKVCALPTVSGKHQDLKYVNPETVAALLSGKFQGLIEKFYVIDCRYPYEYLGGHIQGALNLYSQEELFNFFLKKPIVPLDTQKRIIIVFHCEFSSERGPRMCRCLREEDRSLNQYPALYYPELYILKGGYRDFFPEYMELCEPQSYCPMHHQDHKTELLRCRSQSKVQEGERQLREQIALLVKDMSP
The assay is described as follows: Cdc25C phosphatase inhibition screen at 50 μM. The following applies: read-out: Percent Inhibition at 50 uM compound, Cdc25 C. The protocol: (§1) Using procedures known to those skilled in the art, the compounds listed in Table 3 were screened against Cdc25A, Cdc25B, and Cdc25C at 50 μM. […] To analyze these effects further, the compounds were then screened against Cdc25B in a 3 pt. IC-50, using 1, 7 and 50 μM. Several of the compounds were also screened with an 8 pt. IC-50 process, using 0.1–10 μM, allowing determination of Hill slopes.

The target of a further assay is T2, Cdc25B (Homo sapiens, UniProt P30305).
T2 sequence (P30305 1-580): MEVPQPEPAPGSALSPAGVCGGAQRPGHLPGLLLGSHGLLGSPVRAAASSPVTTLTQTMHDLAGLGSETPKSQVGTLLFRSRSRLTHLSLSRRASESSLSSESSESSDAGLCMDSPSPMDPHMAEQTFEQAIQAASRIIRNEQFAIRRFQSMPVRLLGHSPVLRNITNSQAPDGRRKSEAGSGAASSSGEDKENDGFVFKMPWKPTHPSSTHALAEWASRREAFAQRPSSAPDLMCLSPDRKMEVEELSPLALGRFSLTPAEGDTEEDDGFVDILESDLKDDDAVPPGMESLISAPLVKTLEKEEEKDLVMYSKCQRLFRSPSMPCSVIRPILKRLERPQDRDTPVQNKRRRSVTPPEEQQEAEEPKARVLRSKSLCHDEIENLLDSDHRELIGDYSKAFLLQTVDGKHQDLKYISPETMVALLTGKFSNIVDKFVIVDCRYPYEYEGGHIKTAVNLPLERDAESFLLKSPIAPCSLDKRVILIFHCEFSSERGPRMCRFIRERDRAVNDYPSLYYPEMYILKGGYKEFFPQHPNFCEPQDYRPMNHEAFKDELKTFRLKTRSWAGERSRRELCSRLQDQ
The assay is described as follows: Cdc25B phosphatase inhibition (50 μM screen, 3 pt. and 8 pt. IC-50). The conditions noted are these: for IC50: Cdc25B; for inhibition at 50 µM: read-out: Percent Inhibition at 50 uM compound, Cdc25 B. The protocol: as §1

A further assay addresses T3, Cdc25A (Homo sapiens, UniProt P30304).
T3 sequence (P30304 1-524): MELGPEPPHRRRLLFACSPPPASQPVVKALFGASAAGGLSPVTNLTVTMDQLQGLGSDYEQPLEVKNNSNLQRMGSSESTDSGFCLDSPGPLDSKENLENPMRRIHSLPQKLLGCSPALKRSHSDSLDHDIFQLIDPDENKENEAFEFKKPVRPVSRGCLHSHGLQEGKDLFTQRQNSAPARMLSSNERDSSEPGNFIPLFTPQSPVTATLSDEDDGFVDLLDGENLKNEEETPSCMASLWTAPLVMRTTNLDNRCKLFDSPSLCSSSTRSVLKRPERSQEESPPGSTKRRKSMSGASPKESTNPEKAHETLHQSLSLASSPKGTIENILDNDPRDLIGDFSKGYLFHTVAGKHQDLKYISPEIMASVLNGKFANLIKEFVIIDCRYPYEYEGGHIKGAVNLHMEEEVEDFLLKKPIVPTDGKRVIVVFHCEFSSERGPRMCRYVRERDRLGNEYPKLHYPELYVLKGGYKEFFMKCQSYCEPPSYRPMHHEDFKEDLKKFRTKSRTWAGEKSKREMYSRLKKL
The assay is described as follows: Cdc25A phosphatase inhibition screen at 50 μM. The following applies: read-out: Percent Inhibition at 50 uM compound, Cdc25 A. The protocol: as §1

Where [1] appears, read: 3 pt. IC-50 using 1, 7 and 50 μM, read-out: IC50 (3 pt).
The mark [2] stands for this setting: 8 pt. IC-50 using 0.1–10 μM, read-out: IC50 (8 pt).

Like-named read-outs stand apart in the source and are kept apart here.

In general, inhibition refers to the change of the read-out against control, counted positive when it falls. As a reminder, the IC50 is the concentration that inhibits the measured activity by half. Take `O=C1C=C(O)C(=O)C(c2c[nH]c3c(Cc4ccccc4)cccc23)=C1O` [6E, 2,5-dihydroxy-3-(7-benzyl-1H-indol-3-yl)-[1,4]-benzoquinone]: the inhibition at 50 µM stood at 98% on Cdc25C, 97% at Cdc25B and 98% at Cdc25A. Besides, at Cdc25B (setting [1]), the concentration for half-maximal inhibition (IC50) stood at 1700 nM.

In the case of `CCCc1cccc2c(C3=C(O)C(=O)C=C(O)C3=O)c[nH]c12` [6A, 2,5-dihydroxy-3-(7-propyl-1H-indol-3-yl)-[1,4]-benzoquinone], the inhibition at 50 µM at Cdc25C amounted to 79%; on Cdc25B, 23%; at Cdc25A, 93%. The IC50 at Cdc25B (setting [1]) was found to be 14100 nM.

Regarding `Cc1[nH]c2c(C)cccc2c1C1=C(O)C(=O)C=C(O)C1=O` [7G, 2,5-dihydroxy-3-(2,7-dimethyl-1H-indol-3-yl)-[1,4]-benzoquinone], the inhibition at 50 µM was 0% on Cdc25C, 0% on Cdc25B and 20% at Cdc25A. Moreover, the IC50 on Cdc25B (setting [1]) was found to be 38500 nM.

`O=C1C=C(O)C(=O)C(c2c[nH]c3c(Br)cccc23)=C1O` [5G, 2,5-dihydroxy-3-(7-bromo-1H-indol-3-yl)-[1,4]-benzoquinone]: the inhibition at 50 µM at Cdc25C is 88%; at Cdc25B, 45%; at Cdc25A it was 93%. The IC50 on Cdc25B (setting [1]) came to 2100 nM.

For the compound `O=C1C=C(O)C(=O)C(c2c[nH]c3cc4c(cc23)OCO4)=C1O` [7H, 2,5-dihydroxy-3-(5,6-methylenedioxy-1H-indol-3-yl)-[1,4]-benzoquinone], the inhibition at 50 µM is 63% on Cdc25C, 88% at Cdc25B and 96% at Cdc25A. In addition, the IC50 at Cdc25B (setting [1]) came out at 3700 nM.

As to `O=C1C=C(O)C(=O)C(c2c[nH]c3c(Cl)cccc23)=C1O` [5F, 2,5-dihydroxy-3-(7-chloro-1H-indol-3-yl)-[1,4]-benzoquinone], the inhibition at 50 µM is 54% at Cdc25C, 23% at Cdc25B and 92% at Cdc25A. Further, at Cdc25B (setting [1]), the IC50 came out at 38000 nM.

Regarding `O=C1C=C(O)C(=O)C(c2c(C3CC3)[nH]c3ccccc23)=C1O` [2E, 2,5-dihydroxy-3-(2-cyclopropyl-1H-indol-3-yl)-[1,4]-benzoquinone], the inhibition at 50 µM on Cdc25C was 0%; on Cdc25B it was 32%; on Cdc25A it was 79%. In addition, the IC50 came out at 2300 nM on Cdc25B (setting [1]) and 24400 nM on Cdc25B (setting [2]).

Consider `O=C1C=C(O)C(=O)C(c2c[nH]c3cccc(F)c23)=C1O` [3D, 2,5-dihydroxy-3-(4-fluoro-1H-indol-3-yl)-[1,4]-benzoquinone], for which the inhibition at 50 µM turned out to be 0% on Cdc25C, 5% at Cdc25B and 59% on Cdc25A. Also, the 50% inhibitory concentration (IC50) at Cdc25B (setting [1]) is 1200 nM; at Cdc25B (setting [2]) it was 15900 nM.

Take `O=C1C=C(O)C(=O)C(c2c[nH]c3cccc(Br)c23)=C1O` [3F, 2,5-dihydroxy-3-(4-bromo-1H-indol-3-yl)-[1,4]-benzoquinone]: the inhibition at 50 µM on Cdc25C amounted to 54%; on Cdc25B, 6%; at Cdc25A, 0%. The figures for the IC50 at Cdc25B (setting [1]) and at Cdc25B (setting [2]) were 3100 nM and greater than 2000 nM, respectively.

For `O=C1C=C(O)C(=O)C(c2c[nH]c3c(OCc4ccccc4)cccc23)=C1O` [7B, 2,5-dihydroxy-3-(7-benzyloxy-1H-indol-3-yl)-[1,4]-benzoquinone], the inhibition at 50 µM at Cdc25C turned out to be 85%; at Cdc25B it was 97%; at Cdc25A, 98%. In addition, the IC50 at Cdc25B (setting [1]) amounted to 1600 nM.

Consider `Cc1cccc2c(C3=C(O)C(=O)C=C(O)C3=O)c[nH]c12` [5H, 2,5-dihydroxy-3-(7-methyl-1H-indol-3-yl)-[1,4]-benzoquinone], for which the inhibition at 50 µM at Cdc25C worked out at 1%; at Cdc25B, 0%; at Cdc25A, 60%. Also, the half-inhibitory concentration (IC50) on Cdc25B (setting [1]) was found to be 4200 nM.

In the case of `COc1cccc2[nH]cc(C3=C(O)C(=O)C=C(O)C3=O)c12` [3G, 2,5-dihydroxy-3-(4-methoxy-1H-indol-3-yl)-[1,4]-benzoquinone], the figures for the inhibition at 50 µM on Cdc25C, on Cdc25B and on Cdc25A were 19%, 21% and 77%, respectively. In addition, at Cdc25B (setting [1]), the IC50 was 7200 nM.

Turning to `Cc1ccccc1Cc1cccc2c(C3=C(O)C(=O)C=C(O)C3=O)c[nH]c12` [6F, 2,5-dihydroxy-3-[7-(2-methyl-benzyl)-1H-indol-3-yl]-[1,4]-benzoquinone], the inhibition at 50 µM worked out at 94% at Cdc25C, 97% on Cdc25B and 90% on Cdc25A. The IC50 came to 600 nM at Cdc25B (setting [1]) and 1100 nM on Cdc25B (setting [2]).

With `O=C1C=C(O)C(=O)C(c2c[nH]c3ccc(Br)cc23)=C1O` [4D, 2,5-dihydroxy-3-(5-bromo-1H-indol-3-yl)-[1,4]-benzoquinone], the inhibition at 50 µM at Cdc25C came to 26%; at Cdc25B it was 55%; on Cdc25A it was 96%. Besides, on Cdc25B (setting [1]), the IC50 was 2400 nM.

As to `CC(C)=CCC/C(C)=C/Cc1cccc2c(C3=C(O)C(=O)C=C(O)C3=O)c[nH]c12` [6C, 2,5-dihydroxy-3-(7-geranyl-1H-indol-3-yl)-[1,4]-benzoquinone], the figures for the inhibition at 50 µM at Cdc25C, on Cdc25B and on Cdc25A were 96%, 95% and 99%, respectively. Besides, the half-inhibitory concentration (IC50) worked out at 100 nM at Cdc25B (setting [1]) and 500 nM at Cdc25B (setting [2]).

In the case of `Cc1ccc2c(C3=C(O)C(=O)C=C(O)C3=O)c[nH]c2c1C` [8B, 2,5-dihydroxy-3-(6,7-dimethyl-1H-indol-3-yl)-[1,4]-benzoquinone], the figures for the inhibition at 50 µM at Cdc25C, at Cdc25B and on Cdc25A were 20%, 32% and 90%, respectively. Moreover, the IC50 on Cdc25B (setting [1]) stood at 12800 nM.

`Cc1cccc2[nH]cc(C3=C(O)C(=O)C=C(O)C3=O)c12` [4A, 2,5-dihydroxy-3-(4-methyl-1H-indol-3-yl)-[1,4]-benzoquinone]: the inhibition at 50 µM at Cdc25C amounted to 28%; on Cdc25B, 9%; at Cdc25A, 51%. Also, the half-inhibitory concentration (IC50) at Cdc25B (setting [1]) stood at 6000 nM.

As for `O=C1C=C(O)C(=O)C(c2c[nH]c3cc(F)ccc23)=C1O` [5A, 2,5-dihydroxy-3-(6-fluoro-1H-indol-3-yl)-[1,4]-benzoquinone], the figures for the inhibition at 50 µM at Cdc25C, on Cdc25B and at Cdc25A were 90%, 48% and 91%, respectively. The IC50 at Cdc25B (setting [1]) was found to be 2000 nM; at Cdc25B (setting [2]), 6800 nM.

Turning to `O=C1C=C(O)C(=O)C(c2c[nH]c3ccc(Cl)cc23)=C1O` [4C, 2,5-dihydroxy-3-(5-chloro-1H-indol-3-yl)-[1,4]-benzoquinone], the results for the inhibition at 50 µM at Cdc25C, at Cdc25B and on Cdc25A were 45%, 32% and 95%, respectively. Besides, the IC50 at Cdc25B (setting [1]) turned out to be 2300 nM.

For the compound `O=C1C=C(O)C(=O)C(c2c[nH]c3cc(OCc4ccccc4)ccc23)=C1O` [5C, 2,5-dihydroxy-3-(6-benzyloxy-1H-indol-3-yl)-[1,4]-benzoquinone], the figures for the inhibition at 50 µM at Cdc25C, on Cdc25B and on Cdc25A were 92%, 97% and 89%, respectively. Further, the IC50 at Cdc25B (setting [1]) turned out to be 1700 nM.

These data come from patent US7057052B2, “Heterocyclic quinones as pharmaceutical agents” (Duke University, priority 2002, dated 2006).
